Reference: PMC11784839, “Monoaminergic neurotransmitters are bimodal effectors of tau aggregation” (Science Advances, 2025)

Target: tau (Homo sapiens, UniProt P10636)
Test: MCE Phenols Library screening, tau biosensor cell seeding assay (AvZ)
Type: cell-based
Settings: for AvZ (average z score of seeding, SDs from the mean level of seeding): 10 μM phenol in cell cultures, AD brain homogenate preincubated 16 hours, two biological replicates, positive = catalyzes seeding, negative = inhibits; for Z repl 1 / Z Repl 2: Z score; for Z repl 1 / raw data 1: replicate 1; for Z Repl 2 / raw data 2: replicate 2
[1] = average Z score of the two replicates, MCE Phenols Library screen
[2] = average puncta of the two replicates
[3] = average Z score of two replicates, Phenols Library screen
[4] = average Z score of the two replicates, tau seeding
[5] = average Z score of the two replicates, tau biosensor seeding, MCE Phenols Library screen

Chain of tau (P10636 623-695 limits assumed): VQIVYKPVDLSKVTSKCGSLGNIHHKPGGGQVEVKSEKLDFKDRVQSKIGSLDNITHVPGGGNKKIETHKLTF

| Compound | AvZ (average z score of seeding, SDs from the mean level of seeding) | Z repl 1 | Z Repl 2 | av puncta (average of raw data 1 and 2) | raw data 1 (puncta) | raw data 2 (puncta) | av Z [1] | av puncta [2] | raw data 1 (raw puncta) | raw data 2 (raw puncta) | av Z [3] | av Z [4] | av Z [5] |
| --- | --- | --- | --- | --- | --- | --- | --- | --- | --- | --- | --- | --- | --- |
| N[C@@H](Cc1ccc(O)c([N+](=O)[O-])c1)C(=O)O [3-Nitro-L-tyrosine] | 1.177 | 0.936 | 1.418 | 32750.4 | 37588.7 | 27912.2 | – | – | – | – | – | – | – |
| O=C(/C=C/c1ccc(O)cc1)c1c(O)cc(O)cc1O [Naringenin chalcone] | – | -1.271 | -0.404 | 9770.58 | 11089.3 | 8451.87 | -0.838 | – | – | – | – | – | – |
| COc1cc(CCN)ccc1O [3-Methoxytyramine] | -0.304 | 0.052 | -0.661 | – | – | – | – | 16341.1 | 26971.9 | 5710.28 | – | – | – |
| Cc1cc(O)c2c(c1)C(=O)c1cc(O)cc(O[C@@H]3O[C@H](CO)[C@@H](O)[C@H](O)[C@H]3O)c1C2=O [Emodin-8-glucoside] | – | 0.113 | -0.367 | 18275.8 | 27700.1 | 8851.57 | – | – | – | – | -0.127 | – | – |
| CC(C)=CCc1c(O[C@@H]2O[C@H](CO)[C@@H](O)[C@H](O)[C@H]2O)cc(O)c2c(=O)c(O[C@@H]3O[C@@H](C)[C@H](O)[C@@H](O)[C@H]3O)c(-c3ccc(O)cc3)oc12 [Epimedoside A] | – | 0.582 | -0.181 | 22081.1 | 33332 | 10830.3 | – | – | – | – | – | 0.2 | – |
| CC[C@@H](C(=O)[C@@H](C)[C@@H](O)[C@H](C)CCc1ccc(C)c(O)c1C(=O)O)[C@H]1O[C@](CC)([C@H]2CC[C@](O)(CC)[C@H](C)O2)C[C@@H]1C [Lasalocid] | – | 0.41 | -0.218 | 20851.6 | 31268.6 | 10434.5 | – | – | – | – | 0.096 | – | – |
| OC[C@H]1O[C@@H](Oc2cc3c(O)cc(O)cc3[o+]c2-c2ccc(O)c(O)c2)[C@H](O)[C@@H](O)[C@@H]1O.[Cl-] [Kuromanin (chloride)] | – | -0.084 | -0.888 | – | 25345.8 | 3284.04 | -0.486 | 14314.9 | – | – | – | – | – |
| O=C(CCc1ccc(O)c(O)c1)NCCCNCCCCNCCCNC(=O)CCc1ccc(O)c(O)c1 [Kukoamine A] | – | -0.156 | -0.952 | – | 24479.5 | 2602.81 | -0.554 | 13541.2 | – | – | – | – | – |
| CCOC(=O)c1cc(O)c(O)c(O)c1 [Ethyl gallate] | -0.79 | -0.43 | -1.15 | 10837.2 | 21190.3 | 484.087 | – | – | – | – | – | – | – |
| O=C1C[C@@H](c2cc(O)c(O)c(O[C@@H]3O[C@H](CO)[C@@H](O)[C@H](O)[C@H]3O)c2)Oc2cc(O)cc(O)c21 [Plantagoside] | – | 0.333 | -0.026 | 21412.5 | 30340.8 | 12484.2 | – | – | – | – | – | 0.153 | – |
| CC[C@@]1(O)C(=O)OCc2c1cc1n(c2=O)Cc2cc3cc(O)ccc3nc2-1 [(S)-10-Hydroxycamptothecin] | – | 1.738 | 1.796 | 39581.6 | 47219.2 | 31944.1 | – | – | – | – | – | – | 1.767 |
| CC(=O)c1ccc(C)cc1O [2'-Hydroxy-4'-methylacetophenone] | -0.002 | 0.483 | -0.487 | 19854.9 | 32144.5 | 7565.33 | – | – | – | – | – | – | – |
| NCC(c1ccc(O)cc1)C1(O)CCCCC1 (stereo not shown) [N,N,O-Tridesmethylvenlafaxine] | 0.955 | 0.959 | 0.951 | 30393 | 37867.4 | 22918.7 | – | – | – | – | – | – | – |
| O=c1c(O)c(-c2ccc(O)cc2)oc2c(O)c(O)cc(O)c12 [Herbacetin] | -1.63 | -2.129 | -1.129 | 747.252 | 787.042 | 707.463 | -1.629 | – | – | – | – | – | – |
| OCc1ccc(O[C@@H]2O[C@H](CO)[C@@H](O)[C@H](O)[C@H]2O)cc1 [Gastrodin] | – | -1.05 | -0.621 | 9937.48 | 13738.4 | 6136.55 | -0.836 | – | – | – | – | – | – |
| CCc1ccc(O)cc1O [4-Ethylresorcinol] | -1.119 | -1.505 | -0.734 | 6604.27 | 8283.51 | 4925.02 | – | – | – | – | – | – | – |
| CC(=O)N[C@@H](Cc1ccc(O)cc1)C(=O)O [N-Acetyl-L-tyrosine] | -0.474 | -0.073 | -0.875 | – | 25475.6 | 3423.63 | – | 14449.6 | – | – | – | – | – |

| Compound | AvZ (average z score of seeding, SDs from the mean level of seeding) | Z repl 1 | Z Repl 2 | av puncta (average of raw data 1 and 2) | raw data 1 (puncta) | raw data 2 (puncta) | av Z [1] | av puncta [2] | raw data 1 (raw puncta) | raw data 2 (raw puncta) | av Z [3] | av Z [4] | av Z [5] |
| --- | --- | --- | --- | --- | --- | --- | --- | --- | --- | --- | --- | --- | --- |
| CC(=O)Oc1ccc(/C=C/c2cc(OC(C)=O)cc(OC(C)=O)c2)cc1 [Triacetylresveratrol] | – | -0.969 | -0.064 | – | 14710.4 | 12082.6 | -0.517 | 13396.5 | – | – | – | – | – |
| COc1cc(O)cc(/C=C/c2ccc(O)cc2)c1 [Pinostilbene] | – | 0.091 | -0.704 | – | – | – | -0.306 | 16345.6 | 27446.2 | 5245.02 | – | – | – |
| COc1cc(CCO)ccc1O [Homovanillyl alcohol] | -0.068 | -0.272 | 0.136 | 18647.3 | 23079.4 | 14215.2 | – | – | – | – | – | – | – |
| O=C(CCc1ccc(O)cc1)c1c(O)cc(O[C@@H]2O[C@H](CO)[C@@H](O)[C@H](O)[C@H]2O)cc1O [Trilobatin] | – | 0.764 | -0.24 | 22862 | 35522.1 | 10201.8 | – | – | – | – | – | 0.262 | – |
| Medicarpin | – | -0.987 | -0.112 | – | 14494.9 | 11569.9 | -0.55 | 13032.4 | – | – | – | – | – |
| OCCc1ccc(O)c(O)c1 [Hydroxytyrosol] | -0.34 | -0.11 | -0.571 | – | – | – | – | 15851.9 | 25031.1 | 6672.58 | – | – | – |
| O=C(O)c1ccc(O)c(O)c1 [Protocatechuic acid] | -0.565 | -0.928 | -0.202 | – | 15212.3 | 10612.8 | – | 12912.5 | – | – | – | – | – |
| Cc1cc(O)c(C)c2c1O[C@](C)(CCC[C@H](C)CCC[C@H](C)CCCC(C)C)CC2 [?-Tocopherol] | – | 0.056 | -0.786 | – | – | – | -0.365 | 15701 | 27026 | 4376.13 | – | – | – |
| CC(=O)c1c(O)c(C)c(O)c(Cc2c(O)c3c(c(C(=O)/C=C/c4ccccc4)c2O)OC(C)(C)C=C3)c1O [Rottlerin] | – | 0.296 | 1.083 | 27122.4 | 29908.4 | 24336.4 | – | – | – | – | – | 0.69 | – |
| CC(C)=CCc1c(-c2ccc(O)cc2O)oc2c([C@H]3C=C(C)C[C@@H](c4ccc(O)cc4O)[C@@H]3C(=O)c3ccc(O)cc3O)c(O)cc(O)c2c1=O [Kuwanon G] | – | 0.063 | 0.629 | 23290.6 | 27102.4 | 19478.8 | – | – | – | – | – | 0.346 | – |
| COc1cc(/C=C/c2ccc(O)cc2)cc(OC)c1 [Pterostilbene] | – | -0.975 | -0.298 | – | 14642.4 | 9586.42 | -0.636 | 12114.4 | – | – | – | – | – |
| O=C(O)Cc1cc(O)ccc1O [Homogentisic acid] | -1.185 | -1.286 | -1.085 | 6046.8 | 10913.7 | 1179.87 | – | – | – | – | – | – | – |
| COC(=O)c1c2c(c3ccccc3c1O)OC(C)(C)C=C2 [Mollugin] | – | 0.972 | 0.582 | 28499.6 | 38015.5 | 18983.8 | – | – | – | – | – | – | 0.777 |
| O=C([O-])C(O)Cc1ccc(O)c(O)c1.[Na+] (stereo not shown) [Danshensu (sodium salt)] | -0.495 | -0.172 | -0.817 | – | 24282 | 4039.49 | – | 14160.8 | – | – | – | – | – |
| COc1cc2c(cc1OC)[C@@H](Cc1ccc(O)c(Oc3cc4c(cc3OC)CCN(C)[C@@H]4Cc3ccc(O)cc3)c1)N(C)CC2 [Liensinine] | – | -0.418 | -0.081 | – | – | – | -0.249 | 16619 | 21336.6 | 11901.3 | – | – | – |
| C[C@H]1CCCC(=O)CCC/C=C/c2cc(O)cc(O)c2C(=O)O1 [Zearalenone] | – | -0.335 | 0.423 | 19802.8 | 22326 | 17279.6 | – | – | – | – | 0.044 | – | – |
